Source: ChEMBL document CHEMBL1139899, “Alpha-phenyl-N-tert-butyl nitrone (PBN) derivatives: synthesis and protective action against microvascular damages induced by ischemia/reperfusion” (Bioorg Med Chem, 2007)

Assays:
[1] = tested on: Syrian golden hamster; assay: Protective effect against ischemia/reperfusion-induced microvascular damages in golden hamster assessed as number of leakage site per cm^2 at 3 mg/kg, po after 15 mins by cheek pouch assay; assay type: functional, Mesocricetus auratus
[2] = Partition coefficient, log P of the compound; assay type: physicochemical; details: octanol/water
[3] = tested on: Syrian golden hamster; assay: Protective effect against ischemia/reperfusion-induced microvascular damages in golden hamster assessed as number of leakage site per cm^2 at 3 mg/kg, po after 10 mins by cheek pouch assay; assay type: functional, Mesocricetus auratus
[4] = tested on: Syrian golden hamster; assay: Protective effect against ischemia/reperfusion-induced microvascular damages in golden hamster assessed as number of leakage site per cm^2 at 10 mg/kg, po after 10 mins by cheek pouch assay; assay type: functional, Mesocricetus auratus
[5] = tested on: Syrian golden hamster; assay: Protective effect against ischemia/reperfusion-induced microvascular damages in golden hamster assessed as number of leakage site per cm^2 at 10 mg/kg, po after 15 mins by cheek pouch assay; assay type: functional, Mesocricetus auratus

Row | logP [2] | Structure (SMILES) | Activity [1] [leakage sites/cm2] | Activity [3] [leakage sites/cm2] | Activity [4] [cm2] | Activity [5] [cm2]
1 | 1.1 | CC(C)(C)/[N+]([O-])=C\c1ccco1 | 33 | 49 | – | –
2 | 0.57 | CC(C)(C)/[N+]([O-])=C\c1ccc2c(c1)OCO2 | 38 | 44 | – | –
3 | 1.5 | CC(C)(C)/[N+]([O-])=C/c1ccccc1 | – | – | – | –
4 | 1.39 | CC(C)(C)/[N+]([O-])=C\c1ccc([N+](=O)[O-])cc1 | 78 | 90 | – | –
5 | 1.58 | COc1cc(/C=[N+](/[O-])C(C)(C)C)ccc1O | 85 | 108 | – | –

The next lines start with the molecule.

Row | Structure (SMILES) | logP [2] | Activity [1] [leakage sites/cm2] | Activity [3] [leakage sites/cm2] | Activity [4] [cm2] | Activity [5] [cm2]
6 | COc1cc(/C=[N+](/[O-])C(C)(C)C)ccc1OCc1ccccc1 | 2.68 | 35 | 40 | – | –
7 | CN(C)c1ccc(/C=[N+](/[O-])C(C)(C)C)cc1 | 1.73 | 55 | 75 | – | –
8 | CC(C)(C)/[N+]([O-])=C\c1cccnc1 | 0.21 | 60 | 68 | – | –
9 | CC(C)(C)/[N+]([O-])=C/c1cc2c(cc1Br)OCO2 | 1.69 | 109 | 118 | – | –
10 | Cc1c(C)c2c(c(C)c1O)CC[C@@](C)(CCC[C@H](C)CCC[C@H](C)CCCC(C)C)O2 [ALPHA-TOCOPHEROL] | – | – | – | 50 | 45
